This is an account of results in patent US20230093147A1, “METHODS AND COMPOSITIONS RELATING TO IMPROVED COMBINATION THERAPIES” (PRESIDENT AND FELLOWS OF HARVARD COLLEGE, priority 2020, published 2023).

As a reminder, the IC50 is the concentration that gives 50% inhibition.

Series [1] deals with 4T1 cells. Briefly: Calreticulin exposure on 4T1 cells. In kind it is cell-based, murine. The note with it: 10 μM DOX, compared to untreated controls.
Method: Cells for antibody staining and flow cytometry studies were plated in 6-well plates in 3 ml of media and allowed to adhere overnight. […] Treatment was administered approximately 24 h after plating. Cells were harvested using 0.5 ml of trypsin and resuspended to establish 10^6 cells in 100 μl of cell staining buffer. Cells were washed once and incubated at room temperature with 1% CD16/32 in 100 μl of cell staining buffer. After another wash, cells were incubated for 30 min on ice with fluorescently labeled antibodies (Table 12) to distinguish tumor antigens or characteristic markers of immune cell subtypes. Antibody-stained cells were then washed twice before analysis with a BD LSRII flow cytometer.
Series [2] concerns 4T1 murine breast cancer cells. In words: In vitro cellular inhibition (MTT) and synergy quantification. In kind it is cell-based. The method, then: 4T1 cells were seeded in 96 well plates at a density of 500 cells/well. Cells were given 24 hours to adhere to the well plate. Afterwards, a series of ten drug or drug combination dilutions prepared in fresh media were administered to the cells, with a starting concentration of 100 μM. The drugs were incubated with the cells for 72 hours before the media was removed and replaced with 0.5 mg/ml of MTT reagent in media fresh media. The MTT reagent was left incubating with the cells for 4 hours, during which living cells metabolized the reagent to form solid formazan crystals. Afterwards, the MTT reagent in media was removed, and the crystallized formazan was dissolved in DMSO. The plate is shaken at 300 rpm for 15 minutes to fully dissolve the formazan crystals, and absorbance was measured at 590 nm via Spectramax i3 plate reader. The fraction of cells inhibited at a certain drug concentration was calculated by: […]
where A is the average absorbance of the treated wells, A0 is the average absorbance of the blank wells with DMSO, and AC is the average absorbance of the control untreated wells. The IC50 values for each treatment was then determined through fitting of the Hill equation for dose-response in GraphPad™. The Hill equation is given as follows: […]
with X as the drug concentration and Y as the fractional inhibition, and m is known as the Hill coefficient and is determined according to the fit.
To evaluate drug efficacy against 4T1, drugs were evaluated as single drugs and as combination treatments with DOX. Synergy was quantified using the combination index (CI)^10. The formula for CI is as follows:
Where [AC]50 and [BC]50 represent the IC50 of drugs A and B when given in combination, and the denominator represents the IC50 of single drugs A and B. CI<1 indicates synergy, while a CI=1 indicates additive effects, and a CI>1 indicates antagonism.

Series [3] in a line: Drug release from liposomes into PBS at 37° C. over 24 hours, Example 1. The note with it: release from liposomal formulation. The format is physicochemical. The method, then: The release profile of drug from liposomes was studied using Amicon Ultra mini dialysis filters supplied by Millipore Sigma (Burlington, Mass.) at sink conditions^59. A tenfold dilution of each liposomal formulation in PBS was kept in the mini dialysis filter at 37° C. above a 1.1 ml PBS reservoir. Samples were placed on a plate shaker for constant agitation. […] All PBS reservoirs were analyzed for released drug content using HPLC.

The mark [4] stands for this setting: free drugs and free drug combinations.
Setting [5] is: free drugs and free drug combinations, 72 hours, 500 cells/well.
Setting [6] is: Mus musculus, 72 h, free drugs and free drug combinations, 500 cells/well.

Where “and” joins values, the source holds several entries; their conditions need not be identical. Identical values can stand only once.

Regarding `COc1cccc2c1C(=O)c1c(O)c3c(c(O)c1C2=O)C[C@@](O)(C(=O)CO)C[C@@H]3O[C@H]1C[C@H](N)[C@H](O)[C@H](C)O1` [DOX, Doxorubicin], the “fold increase in calreticulin exposure on 4T1 cells” value in series [1] stood at 1.8 fold. The “Hill coefficient, HC” value in series [2] (setting [4]) is reported as 0.75 ± 0.04. Moreover, the IC50 in series [2] (setting [5]) came to 36 nM.
As to `Nc1ccn([C@@H]2O[C@H](CO)[C@@H](O)C2(F)F)c(=O)n1` [GEM, gemcitabine], the IC50 was 12 ± 0.3 nM in series [2] (setting [6]) and 12 ± 0.3 nM in series [2] (Mus musculus, free drug). Besides, in series [2] (setting [4]), the “Hill coefficient, HC” value was 1.8±0.09 and 1.83 ± 0.09.
Take `CCc1c2c(nc3ccc(OC(=O)N4CCC(N5CCCCC5)CC4)cc13)-c1cc3c(c(=O)n1C2)COC(=O)[C@]3(O)CC` [IRIN, irinotecan]: the “IRIN released within 24 hours” value in series [3] is reported as “less than 40%”. Besides, the IC50 in series [2] (setting [6]) amounted to 14000 nM; in series [2] (setting [5]), 14000 ± 700 nM.
